Measured values taken from ChEMBL document CHEMBL5120862, “Novel non-covalent LSD1 inhibitors endowed with anticancer effects in leukemia and solid tumor cellular models” (Eur J Med Chem, 2022).
pIC50, pKd, pKi: −log10 of the molar value. Active and inactive are the calls of the source. The rule behind the calls is not given here.

Key:
[1] = biological target: T1, Histone-lysine N-methyltransferase EHMT2 (Homo sapiens, UniProt Q96KQ7); test: Inhibition of G9a (unknown origin) assessed as reduction in substrate methylation using histone H3 and SAM as substrate measured after 15 to 60 mins by microfluidic capillary electrophoresis analysis
T1 sequence (Q96KQ7 whole entry): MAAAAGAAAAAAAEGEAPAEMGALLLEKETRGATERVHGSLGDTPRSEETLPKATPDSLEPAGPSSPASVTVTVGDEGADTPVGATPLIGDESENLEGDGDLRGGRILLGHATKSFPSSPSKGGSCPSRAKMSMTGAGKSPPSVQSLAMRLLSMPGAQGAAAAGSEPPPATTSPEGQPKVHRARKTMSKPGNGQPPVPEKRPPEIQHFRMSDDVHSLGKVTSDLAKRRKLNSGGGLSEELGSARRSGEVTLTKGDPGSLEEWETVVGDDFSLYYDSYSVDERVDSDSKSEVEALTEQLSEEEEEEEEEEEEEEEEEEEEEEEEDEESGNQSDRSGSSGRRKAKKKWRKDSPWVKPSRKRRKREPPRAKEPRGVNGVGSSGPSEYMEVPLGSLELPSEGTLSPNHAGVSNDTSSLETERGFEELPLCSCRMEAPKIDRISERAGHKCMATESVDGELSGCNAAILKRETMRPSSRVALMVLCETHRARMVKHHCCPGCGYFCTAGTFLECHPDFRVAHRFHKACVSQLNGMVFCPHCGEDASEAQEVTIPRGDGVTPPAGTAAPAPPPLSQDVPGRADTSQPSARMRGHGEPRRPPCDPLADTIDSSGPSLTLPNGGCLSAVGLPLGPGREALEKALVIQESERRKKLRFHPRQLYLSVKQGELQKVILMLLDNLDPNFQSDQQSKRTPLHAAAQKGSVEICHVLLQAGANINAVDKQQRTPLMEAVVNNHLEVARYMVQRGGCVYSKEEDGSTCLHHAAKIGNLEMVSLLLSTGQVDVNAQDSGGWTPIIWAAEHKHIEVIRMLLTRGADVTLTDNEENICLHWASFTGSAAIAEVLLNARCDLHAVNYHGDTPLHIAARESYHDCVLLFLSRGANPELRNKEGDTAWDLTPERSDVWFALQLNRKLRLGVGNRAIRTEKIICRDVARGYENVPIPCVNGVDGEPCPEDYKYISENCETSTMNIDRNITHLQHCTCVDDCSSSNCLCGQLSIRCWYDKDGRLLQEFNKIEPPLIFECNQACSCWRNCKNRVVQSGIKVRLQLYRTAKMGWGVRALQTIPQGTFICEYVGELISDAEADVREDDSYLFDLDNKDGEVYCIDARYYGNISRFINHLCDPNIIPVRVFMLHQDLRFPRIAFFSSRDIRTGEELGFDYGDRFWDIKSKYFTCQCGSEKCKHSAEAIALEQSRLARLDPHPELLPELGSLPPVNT

LSD1/CoREST complex [2] = biological target: T2, LSD1/CoREST complex (Homo sapiens, UniProt O60341); test: Inhibition of human LSD1/CoREST using histone H3 peptide as substrate by fluorescence polarization assay; assay type: protein-complex assay
LSD1/CoREST complex [3] = biological target: T2, LSD1/CoREST complex; test: Binding affinity to human LSD1/CoREST assessed as dissociation constant by competitive fluorescence polarization assay; assay type: protein-complex assay
[4] = biological target: Lysine-specific histone demethylase 1A (Homo sapiens) (UniProt O60341); test: Inhibition of LSD1 in human MV4-11 cells assessed as increase in CD86 expression level incubated for 24 hrs by qRT-PCR analysis; assay type: cell-based; settings: dose 0.2-1 µM
MDA-MB-231 = test: Antiproliferative activity against human MDA-MB-231 cells assessed as inhibition of cell growth measured after 72 hrs by MTT assay; assay type: functional, cell-based; settings: MDA-MB-231, 72 h
MV4-11 [5] = test: Induction of cell cycle arrest in human MV4-11 cells assessed as accumulation of cells at G1 phase at 0.2 to […] incubated for 24 hrs; assay type: functional, cell-based; settings: dose 0.2-2.5 µM
MV4-11 [6] = test: Antiproliferative activity against human MV4-11 cells assessed as inhibition of cell growth at […] incubated for 72 to 144 hrs by trypan blue staining based analysis; assay type: functional; settings: dose 2.5 µM, time 72-144 hrs
[7] = biological target: Lysine-specific histone demethylase 1A (Homo sapiens) (UniProt O60341); test: Inhibition of LSD1 in human MV4-11 cells assessed as increase in H3K4me2 level at 0.2 to […] incubated for 24 hrs by Western blot analysis; assay type: cell-based; settings: dose 0.2-2.5 µM
[8] = Cytotoxicity against HMEC cells assessed as residual cell viability at 1 uM incubated for 72 hrs by MTT assay relative to control; assay type: toxicity, cell-based; settings: human, read-out: Activity
[9] = Cytotoxicity against human AHH-1 cells assessed as residual cell viability at 1 uM measured after 72 hrs by MTT assay relative to control; assay type: toxicity, cell-based; settings: read-out: Activity
THP-1 [10] = test: Antiproliferative activity against human THP-1 cells assessed as inhibition of cell growth incubated for 144 hrs by CellTiter-Glo luminescent cell viability assay; assay type: functional, cell-based; settings: THP-1, 144 h
THP-1 [11] = test: Antiproliferative activity against human THP-1 cells assessed as inhibition of cell growth incubated for 72 hrs by CellTiter-Glo luminescent cell viability assay; assay type: functional, cell-based; settings: THP-1, 72 h
MV4-11 [12] = test: Induction of apoptosis in human MV4-11 cells assessed as accumulation of cells at sub-G1 phase incubated for 24 hrs; assay type: functional, cell-based; settings: dose 0.2-25 µM, DDE = dose-dependent effect
THP-1 [13] = test: Antiproliferative activity against human THP-1 cells assessed as inhibition of cell growth incubated for 24 hrs by CellTiter-Glo luminescent cell viability assay; assay type: functional, cell-based; settings: THP-1, 24 h

| Compound | pKi [1] | pKi (LSD1/CoREST complex [2]) | pKd (LSD1/CoREST complex [3]) | also measured |
| --- | --- | --- | --- | --- |
| COc1cc2c(NCCNc3cccc4ccccc34)nc(NCCCN(C)C)nc2cc1OCc1ccccc1 | 4.69 | – | 6.90 | – |
| COc1cc2nc(N(C)CCCN(C)C)nc(NC3CCN(Cc4ccccc4)CC3)c2cc1OC | 5.24 | – | 5.89 | – |
| COc1cc2nc(NCCCN(C)C)nc(NC3CCN(C)CC3)c2cc1OC | 5.38 | – | 5.83 | – |
| COc1cc2nc(NCCCN(C)C)nc(NCCNc3cccc4ccccc34)c2cc1OC | 4.38 | – | 6.64 | – |
| COc1cc2nc(NCCCN(C)C)nc(NC3CCN(C(=O)OC(C)(C)C)CC3)c2cc1OC | 4.33 | 6.69 | 7.09 | pIC50 (THP-1 [10]): 6.26; pIC50 (THP-1 [11]): 6.15; pIC50 (THP-1 [13]): 6.06 |
| COc1cc2nc(NCCCN(C)C)nc(OC3CCN(Cc4ccccc4)CC3)c2cc1OC | < 4.00 | – | 5.55 | – |
| COc1cc2nc(NCCCN(C)C)nc(N(C)C3CCN(Cc4ccccc4)CC3)c2cc1OC | < 4.00 | 6.24 | 6.45 | pIC50 (MDA-MB-231): 5.62; pIC50 (THP-1 [10]): 6.52; pIC50 (THP-1 [11]): 6.37; pIC50 (THP-1 [13]): 6.17 |
| COc1cc2nc(NCCCN(C)C)nc(NC3CCNCC3)c2cc1OC | 5.32 | – | 5.81 | – |

The next lines start with results.

| pKi [1] | pKi (LSD1/CoREST complex [2]) | pKd (LSD1/CoREST complex [3]) | Compound | also measured |
| --- | --- | --- | --- | --- |
| 5.40 | 6.76 | 7.07 | CCN(CC)CCCNc1nc(NC2CCN(Cc3ccccc3)CC2)c2cc(OC)c(OC)cc2n1 | – |
| 4.64 | – | 6.94 | COc1cc2nc(NCCCN(C)C)nc(NCC3CCN(Cc4ccccc4)CC3)c2cc1OC | – |
| 5.93 | 6.84 | 7.09 | COc1cc2nc(NCCCN(C)C)nc(NC3CCN(Cc4ccc(-c5ccccc5)cc4)CC3)c2cc1OC | inhibition [4]: Active; pIC50 (MDA-MB-231): 6.54; Activity (MV4-11 [5]): Active; inhibition (MV4-11 [6]): Active; inhibition [7]: Active; viability at 72 h, 1 µM [8]: 88.1%; viability at 72 h, 1 µM [9]: 79.1%; pIC50 (THP-1 [10]): 7.06; pIC50 (THP-1 [11]): 6.92; Activity (MV4-11 [12]): Dde; pIC50 (THP-1 [13]): 6.77 |
| 5.40 | 6.74 | 7.09 | COc1cc2nc(NCCCN3CCCC3)nc(NC3CCN(Cc4ccccc4)CC3)c2cc1OC | – |
| 5.49 | 6.77 | 7.17 | COc1cc2nc(NCCCN3CCCCC3)nc(NC3CCN(Cc4ccccc4)CC3)c2cc1OC | – |
